Data set [1] deals with patient derived xenograft (PDX) model established from a human primary HCC. The data set is described as follows: In vivo treatment of patient derived xenograft (PDX) mouse model of liver cancer. Also noted: species or system NSG mice. The protocol: In vivo therapeutic effect of BTZ-loaded nanoparticles. The therapeutic effect of BTZ-loaded nanoparticles was assessed using patient derived xenograft (PDX) model. Briefly, fresh human tumor tissue was harvested from HCC patients, then cut in small pieces (3^3 mm^3) and implanted subcutaneously in the right flank of NSG mice. Once tumors grew, a similar process (harvesting tumors from mice, mincing and inserting in new mice) was implemented. Mice at the 5th passage of PDX were utilized in this experiment. After implantation subcutaneously, the tumor is allowed to grow to approximately 1,000 mm^3. Next, mice were randomized to blank nanoparticles and BTZ-loaded nanoparticles with an equivalence of 2.2 mg/kg BTZ. The tumor sizes of mice in different groups were measured through two weeks and were taken as the reflection of therapeutic effect of different formulations.
In general terms: A xenograft is tissue or cells of one species grown in another, often human tumour cells in immunodeficient mice.

The conditions of data set [2]: cited from earlier work.
A short description of data set [3]: Dose escalation test on animal survival. The class given is in vivo, mice. The method, then: Dose escalation test on animal survival following local subcutaneous injection of the 1-month BTZ nanoparticle (BTZ NP) formulation in comparison with free BTZ injection via intratumor injection.
The recommended dose in patients is 1.3 mg/m^2. This dose is also the maximum tolerated dose in patients. […] One of the essential features of BTZ-NP is the ability to release active BTZ gradually. The ability of BTZ-NP to release BTZ slowly by subcutaneous injections was evaluated with increasing doses of BTZ-NP. As shown, a dose of 108 mg/m^2 could be injected without any death in rodents. This dose is approximately 80-fold higher than the dose of the free drug that is sufficient to kill rodents.

Data set [4] relates to primary patient-derived cancer organoid (PDO) cultures from patients with liver cancers. The data set can be described thus: FDA-approved cancer drugs tested across patient-derived cancer organoid (PDO) cultures. The class given is cell-based, human. The method, then:
Thirty-seven primary patient-derived cancer organoid (PDO) cultures have been established from patients with liver cancers (including hepatocellular cancer and cholangiocarcinoma). Food and Drug Administration (FDA)-approved cancer drugs (irrespective of FDA indication) were tested across all 37 PDO cultures.

Consider `CC(C)C[C@H](NC(=O)[C@H](Cc1ccccc1)NC(=O)c1cnccn1)B(O)O` [free BTZ, bortezomib], for which, in data set [1] (high dose 0.8 mg/kg free BTZ), the “animal death due to toxicity” value is reported as “died 1 day after injection”. In addition, the “efficacy in PDX model of liver cancer” value in data set [1] (mouse, in vivo) is listed as “effective”. The “recommended dose / maximum tolerated dose in patients” value in data set [2] is reported as 1.3 mg/m^2. Moreover, in data set [3] (1 mg/kg free BTZ, intra-tumor injection), the cause of death result is reported as “liver failure”. The Survival in data set [3] (1 mg/kg free BTZ, single intra-tumor injection, 12.5 μg/dose, 1.5 mg/m^2) is listed as 0/5. Besides, the “lethal dose in rodent model” value in data set [3] (intratumoral injection) came out at 1.5 mg/m^2. Also, the “effectiveness across PDO lines” value in data set [4] (37 PDO cultures, hepatocellular cancer and cholangiocarcinoma) is “highly effective across all tested PDO lines”. Further, in data set [4] (across all 37 PDO lines), the “effectiveness compared with currently approved FDA drugs for unresectable liver cancers” value is “more effective than any of the currently approved FDA drugs”.

(Values after patent US20230074885A1, “BORTEZOMIB-LOADED NANOPARTICLES” (The Johns Hopkins University, priority 2020, published 2023).)
